Data on 35 compounds can be found in a melting point compilation (Tetko et al.; mined from patent text by program, amines drawn as free bases though some values may be those of a salt).

Turning to `CCOC(=O)Cn1c(-c2ccc(OC)cc2)nc2cccnc21`, the melting point (in general, the temperature, or range, at which the solid turns liquid) is 107 to 108 °C.

`COc1cc(C(C)C)c2c(c1)S(=O)(=O)N(COC(=O)c1c(C)ccnc1C)C2=O` registered a melting point of 132 to 134 °C.

`OCC1CCN(c2ccncc2)CC1` gave a melting point of 183 to 185 °C.

In the case of `O=C1C=C(c2c[nH]c3ccc(O)cc23)C(=O)N1`, the melting point was 292 to 298 °C.

In turn, `COc1cncc(OC)c1CCCO` yielded a melting point of 88 to 89 °C.

Compound `COC(=O)COc1ccc(-c2ccc3c(c2)c(C)c(-c2ccccc2)n3Cc2ccccc2)cc1` displayed a melting point of 167 to 170 °C.

With `CCc1[nH]n(C2CCCC2)c2nc(-c3ccccc3OCCCN3CCOCC3)nc(=O)c1-2`, the melting point lay within 220 to 221 °C.

For the compound `O[C@@H](COc1cccc(-c2noc3ccsc23)c1)CN1CCN(c2ccccc2)CC1`, the melting point was 127 to 129 °C.

`CN1C(=O)C(C2=COc3ccccc3O2)=C(c2c[nH]c3ccc(F)cc23)C1=O` gave a melting point of 229 °C.

For `O=C(Cc1c2c(nn1-c1ccccc1)c(Cl)nc1ccccc12)N1CCN(Cc2ccccc2)CC1`, the melting point was in the range of 210 to 212 °C.

On to `CCCCCCCSc1nn2c(=O)c(C)c(Cl)nc2s1`, for which the melting point was in the range of 79 to 81 °C.

As to `NCCc1cccc(N2C(=O)N(c3c(Cl)cccc3Cl)Cc3cnc(Nc4ccccc4)nc32)c1`, the melting point was 208 °C.

Regarding `Cc1nc2cc3c(cc2[nH]1)NC(=O)C3(C)C`, the melting point is above 300 °C.

Compound `CCCCOC(=O)NS(=O)(=O)c1ccccc1-c1ccc(Cn2c(CCC)nc(SC)c2C(=O)O)cc1` registered a melting point of 202 to 204 °C.

`CC(=O)C(=O)Oc1ccc(NCc2c(F)c(F)c(C(F)(F)F)c(F)c2F)cc1C(=O)O` had a melting point of 128 °C.

For the compound `NSc1nc(N)nc2nc[nH]c12`, the melting point is above 250 °C.

`Cc1ccc(Sc2cncc3sc(C(=O)NCC(O)CO)cc23)cc1` (stereo not given) yielded a melting point of 120 to 122 °C.

`CCCCCCCN(CCCCCSc1nc(-c2ccccc2)c(-c2ccccc2)[nH]1)C(=N)Nc1ccccc1` came in with a melting point of 135 to 136 °C.

As for `Ic1cccc2c(SSc3cccc4c(I)cccc34)cccc12`, the melting point lay within 202 to 203 °C.

For the compound `Cc1nc2c(N)nc3cc(OCCC4CCN(C(=O)NC5CCCCC5)CC4)ccc3c2n1CC(C)C`, the melting point is 214 to 216 °C.

`CCOC(=O)C1(O)CC(C(F)(F)F)=NN1c1ncccc1Cl` (stereo not given): the melting point lay in the range of 78 to 78.5 °C.

`CS(=O)(=O)c1ccc(-c2ccccc2[N+](=O)[O-])cc1` displayed a melting point of 178 °C.

As for `CNCC(O)c1cc(OC)c(O)c(OC)c1` (stereo not given), the melting point was 175 °C.

`Cn1c2cccc(C#N)c2c2nc3ccccc3nc21` yielded a melting point of 237 °C.

`Nc1cc(-n2cc(C(=O)O)c(=O)c3cc(F)c(N4CC(N)C4)c(Cl)c32)ncc1F`: the melting point worked out at 280 °C.

For the compound `CCCCCCC(CCC(=O)OO)CC(=O)OO` (stereo not given), the melting point was 51.5 to 52.5 °C.

`COc1cc(C(F)(F)F)nn1-c1ccc(NC(=O)c2ccccc2F)cc1` displayed a melting point of 167 to 168 °C.

On to `CCOc1cccc(-n2cc(-c3ccc4c(c3)OCO4)c3c(N)ncnc32)c1`, for which the melting point lay in the range of 153 to 155 °C.

As for `COc1ncc(-c2ccncc2)cc1Br`, the melting point is 136 to 138 °C.

Turning to `c1ccc(C(Oc2ccncc2)c2ccccc2)cc1`, the melting point is 68 to 70 °C.

`CCCCCCCCCCC[C@H](CC(=O)N[C@H](CO)C(=O)OCc1ccccc1)OC(=O)CCCCCCCCC` registered a melting point of 51 to 52 °C.

Compound `CCCC(C)(C)C(=O)O[C@H]1C[C@H](O)C=C2C=C[C@H](C)[C@H](CC[C@@H]3C[C@@H](O)CC(=O)O3)[C@H]21` gave a melting point of 143 to 144 °C.

Compound `COc1cc(-c2cccs2)ccc1C(=O)C=Cc1ccc(F)c(F)c1` registered a melting point of 73 to 79 °C.

Consider `COCCOc1ccc(CCCC(=O)O)c(Oc2ncc(C(F)(F)F)cc2Cl)c1`, for which the melting point fell in the range of 119 to 120 °C.

`NC1Cc2ccccc2N(c2ccccc2)C1=O` (stereo not given) registered a melting point of 108 to 110 °C.
